Test results: PMC3398407 (The Journal of Neuroscience, 2012)
Several values for one entry are separate records, joined by “and”; a condition that tells them apart may be missing. Identical values can stand only once. Like-named read-outs stand apart in the source and are kept apart here.

Assays:
[1] = tested on: mPFC layer V pyramidal neurons; assay: Whole-cell voltage clamp recordings of sEPSCs in mPFC layer V pyramidal neurons; set-up: species or system mice; conditions: mouse mPFC slices; for effect on sEPSC frequency / interevent interval (IEI): 100 μM
[2] = tested on: Schaffer collateral-CA1 synapse; assay: Muscarinic long-term depression; conditions: 10 minutes, rat hippocampal slices
[3] = tested on: striatal medium spiny neurons (MSNs); set-up: species or system rats
rats = assay: Amphetamine-induced hyperlocomotion; type: in vivo, rat; conditions: 3–56.6 mg/kg i.p. 30 minutes prior to amphetamine
human M1 mAChR [4] = target: T1, human M1 mAChR (Homo sapiens, UniProt P11229); assay: ERK1/2 phosphorylation in TET-inducible hM1 TREx CHO cells; type: cell-based
T1 sequence (P11229 1-460): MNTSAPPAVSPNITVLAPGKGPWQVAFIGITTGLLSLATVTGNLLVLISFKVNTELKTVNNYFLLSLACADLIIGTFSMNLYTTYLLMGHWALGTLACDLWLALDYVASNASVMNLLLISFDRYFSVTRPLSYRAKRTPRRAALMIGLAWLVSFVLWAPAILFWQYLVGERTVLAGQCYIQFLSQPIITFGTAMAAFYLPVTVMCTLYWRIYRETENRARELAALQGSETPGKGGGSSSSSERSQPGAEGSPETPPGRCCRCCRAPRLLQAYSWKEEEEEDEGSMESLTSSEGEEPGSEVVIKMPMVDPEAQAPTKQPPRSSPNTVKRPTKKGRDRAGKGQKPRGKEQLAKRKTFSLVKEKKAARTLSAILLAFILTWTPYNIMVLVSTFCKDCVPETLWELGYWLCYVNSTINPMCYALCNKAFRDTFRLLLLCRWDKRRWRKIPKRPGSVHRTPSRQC

β3-adrenergic receptors = β3-adrenergic receptors (Homo sapiens, UniProt P13945); assay: GPCRProfiler calcium assay, β3; type: cell-based; conditions: 10 μM compound
D4 dopamine receptors = target: T2, D4 dopamine receptors (Homo sapiens, UniProt P21917); assay: GPCRProfiler calcium assay, D4; type: cell-based; conditions: 10 μM compound
T2 sequence (P21917 1-419): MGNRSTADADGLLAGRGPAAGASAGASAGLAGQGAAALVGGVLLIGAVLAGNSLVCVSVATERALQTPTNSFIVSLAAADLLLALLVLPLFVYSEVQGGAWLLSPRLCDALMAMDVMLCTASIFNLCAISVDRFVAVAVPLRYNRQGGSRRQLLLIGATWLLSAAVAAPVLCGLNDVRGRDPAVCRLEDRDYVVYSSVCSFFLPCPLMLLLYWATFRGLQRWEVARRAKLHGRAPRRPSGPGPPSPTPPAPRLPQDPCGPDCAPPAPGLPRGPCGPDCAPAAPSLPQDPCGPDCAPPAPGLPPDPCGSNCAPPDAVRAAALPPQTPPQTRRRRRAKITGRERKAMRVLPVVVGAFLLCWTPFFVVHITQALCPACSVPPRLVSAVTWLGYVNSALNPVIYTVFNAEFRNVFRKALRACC

hM1 receptors = target: T3, hM1 receptors (Homo sapiens, UniProt P11229); assay: β-arrestin recruitment, PathHunter Express hM1 CHO cells; type: cell-based
T3 sequence (P11229 1-460): T1 sequence (P11229 1-460)

human M1 receptors [5] = target: T4, human M1 receptors (Homo sapiens, UniProt P11229); assay: Calcium mobilization in hM1 CHO cells; conditions: for Ca release % CCh max: Emax normalized to maximum CCh response; for EC50: read-out: Ca release EC50
T4 sequence (P11229 1-460): T1 sequence (P11229 1-460)

Sprague-Dawley rats [6] = assay: Acquisition of contextual fear conditioning; type: in vivo, rat; conditions: vs vehicle
[7] = tested on: Schaffer collateral-CA1 synapse in rat hippocampus; conditions: 500 nM bath applied 10 minutes prior to threshold TBS; rat hippocampal slices
[8] = tested on: 168 G protein coupled receptors (GPCRs); assay: GPCRProfiler calcium assay, agonist mode, other GPCRs; type: cell-based; conditions: 10 μM compound
human M1 mAChR [9] = target: T1, human M1 mAChR; assay: Calcium mobilization in TET-inducible hM1 TREx CHO cells
human M1 receptors [10] = target: T4, human M1 receptors; assay: ERK1/2 phosphorylation; type: cell-based; conditions: hM1 CHO cells, 5 min agonist; for EC50: read-out: ERK EC50
human M1 mAChR [11] = target: T1, human M1 mAChR; assay: Confocal imaging of β-arrestin2-YFP recruitment in hM1 TREx CHO cells; type: cell-based; conditions: agonist 100 μM
M1 muscarinic receptors = target: T5, M1 muscarinic receptors (Homo sapiens, UniProt P11229); assay: GPCRProfiler calcium assay, agonist mode, M1; type: cell-based; conditions: 10 μM compound
T5 sequence (P11229 1-460): T1 sequence (P11229 1-460)

Sprague-Dawley rats [12] = assay: Morris water maze; type: in vivo, rat
D3 receptors = conditions: ref Lebois et al., 2011; cited from earlier work
[13] = read-out: ERK EC50, TET 50 ng/mL
[14] = read-out: ERK EC50, TET 1 μg/mL
[15] = read-out: Ca EC50, TET 10 ng/mL
[16] = read-out: Ca EC50, TET 25 ng/mL
[17] = read-out: Ca EC50, TET 50 ng/mL
[18] = i.p., treated groups vs controls

Sequence of β3-adrenergic receptors (P13945 whole entry): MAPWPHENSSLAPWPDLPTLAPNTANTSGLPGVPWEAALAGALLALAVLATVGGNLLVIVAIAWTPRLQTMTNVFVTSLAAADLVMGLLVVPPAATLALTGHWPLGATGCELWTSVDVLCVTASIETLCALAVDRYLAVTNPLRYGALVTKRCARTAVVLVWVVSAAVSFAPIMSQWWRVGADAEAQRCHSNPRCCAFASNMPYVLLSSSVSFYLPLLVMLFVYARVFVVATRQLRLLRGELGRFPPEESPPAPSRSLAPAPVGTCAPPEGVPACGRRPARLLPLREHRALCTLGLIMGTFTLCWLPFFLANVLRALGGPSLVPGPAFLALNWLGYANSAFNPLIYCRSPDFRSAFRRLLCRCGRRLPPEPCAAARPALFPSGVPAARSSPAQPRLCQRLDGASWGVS

Structure (SMILES) | effect on sEPSC frequency / interevent interval (IEI) [1] | induction of LTD of fEPSP slope ([2]; 30 μM) | reversal of amphetamine-induced hyperlocomotion (rats) | ERK % CCh max (human M1 mAChR [4]; TET 0 ng/mL) [% CCh max] | ERK % CCh max (human M1 mAChR [4]; TET 25 ng/mL) [% CCh max] | ERK % CCh max (human M1 mAChR [4]; TET 50 ng/mL) [% CCh max] | ERK % CCh max (human M1 mAChR [4]; TET 1 μg/mL) [% CCh max] | EC50 (human M1 mAChR [4]; [13]) [µM] | EC50 (human M1 mAChR [4]; [14]) [µM] | effect on β-arrestin recruitment (hM1 receptors) | Ca release % CCh max (human M1 receptors [5]) | EC50 (human M1 receptors [5]) [nM] | excitatory effect in MSNs (number of spikes per depolarization pulse) ([3]; 30 μM) | potentiation of threshold TBS LTP (fEPSP slope) [7] | Ca % CCh max (human M1 mAChR [9]; TET 0 ng/mL) [% CCh max] | Ca % CCh max (human M1 mAChR [9]; TET 10 ng/mL) [% CCh max] | Ca % CCh max (human M1 mAChR [9]; TET 25 ng/mL) [% CCh max] | Ca % CCh max (human M1 mAChR [9]; TET 50 ng/mL) [% CCh max] | Ca % CCh max (human M1 mAChR [9]; TET 1 μg/mL) [% CCh max] | EC50 (human M1 mAChR [9]; [15]) [nM] | further results
C[N+](C)(C)CCOC(N)=O [CCh, carbachol, reference compound] | robust increase in sEPSC frequency | without effect |  |  |  |  |  |  |  |  |  |  |  |  |  |  |  |  |  |  | concentration required for induction of the PFC response [1]: > 50 µM; induction of LTD of fEPSP slope ([2]; 50 μM): induced robust LTD; excitatory effect in MSNs (number of spikes per depolarization pulse) ([3]; 10 μM): robust excitatory effect
CCOC(=O)N1CCC(NCCNC(=O)c2ccccc2C)CC1.Cl [VU0357017] | no significant effect on IEI | did not induce a significant LTD response | fails to reverse hyperlocomotion | 27.4 | 50.3 | 45.9 | 30.3 | 35.9 | 3.17 | little or no effect on β-arrestin recruitment | 41.7 ± 2.37 % CCh max and 41.7 % CCh max | 1600 | very weak efficacy in inducing excitatory effects | significant potentiation of fEPSP slope | 8.24 | 7.21 | 24.5 | 60.4 | 75.3 | 16000 | agonist Ca response at β3 (β3-adrenergic receptors): very small responses; agonist Ca response at D4 (D4 dopamine receptors): very small responses; acquisition of contextual fear (duration of freezing) (Sprague-Dawley rats [6]; 0.1, 0.3, 0.56, 1, and 3 mg/kg i.p. 30 min before conditioning): robust improvements in acquisition of contextual fear; agonist activity at other receptor subtypes [8]: little activity; EC50 (human M1 mAChR [9]; [16]): 16000 nM; EC50 (human M1 mAChR [9]; [17]): 1600 nM; EC50 (human M1 mAChR [9]; read-out: Ca EC50, TET 1 μg/mL): 690 nM; ERK % CCh max (human M1 receptors [10]): 37.9 % CCh max; EC50 (human M1 receptors [10]): 37 µM; β-arrestin2-YFP recruitment (confocal) (human M1 mAChR [11]; TET 50 ng/mL overnight): no effect on β-arrestin recruitment; β-arrestin2-YFP recruitment (confocal) (human M1 mAChR [11]; TET 1 μg/mL overnight): did not induce β-arrestin2 recruitment; agonist Ca response at M1 (M1 muscarinic receptors): induced a significant response; overnight memory retention (Sprague-Dawley rats [12]; [18]): did not differ from controls; platform crossing on the probe trial (Sprague-Dawley rats [12]; [18]): did not differ from controls; swim path distance from days 4 to 5 (Sprague-Dawley rats [12]; [18]): did not differ from controls
CCOC(=O)N1CCC(N2CCC[C@@H](NC(=O)c3ccccc3C)C2)CC1 [VU0364572] | no significant effect on IEI | induced robust LTD | fails to reverse this response | 56.4 | 50.6 | 52.6 | 49.3 | 9.44 | 3.3 | little or no effect on β-arrestin recruitment | 70.8 % CCh max | 890 | relatively weak excitatory effect | significant potentiation of fEPSP slope | 44.2 | 39.9 | 68.1 | 78.1 | 86.2 | 146000 | EC50 (human M1 mAChR [4]; read-out: ERK EC50, TET 0 ng/mL): 108 µM; EC50 (human M1 mAChR [4]; read-out: ERK EC50, TET 25 ng/mL): 9.88 µM; concentration required to induce effects at D3 receptors (D3 receptors): greater than 10 μM; inhibition of binding at D3 receptors (D3 receptors): 10%; acquisition of contextual fear (freezing) (Sprague-Dawley rats [6]; 0.056, 0.3, and 0.56 mg/kg i.p. 30 min before conditioning): improved acquisition of contextual fear learning; EC50 (human M1 mAChR [9]; read-out: Ca EC50, TET 0 ng/mL): 30500 nM; EC50 (human M1 mAChR [9]; [16]): 2300 nM; EC50 (human M1 mAChR [9]; [17]): 1000 nM; EC50 (human M1 mAChR [9]; read-out: Ca EC50, TET 1 μg/mL): 500 nM; ERK % CCh max (human M1 receptors [10]): 90.5 % CCh max; EC50 (human M1 receptors [10]): 10 µM; β-arrestin2-YFP recruitment (confocal) (human M1 mAChR [11]; TET 50 ng/mL overnight): no effect on β-arrestin recruitment; β-arrestin2-YFP recruitment (confocal) (human M1 mAChR [11]; TET 1 μg/mL overnight): did induce responses; swim distance, day 5 (Sprague-Dawley rats [12]; 0.1 mg/kg and 10 mg/kg i.p. 30 min prior to first trial, vs vehicle): decreased swim distance; overnight memory retention day 4 to day 5 (Sprague-Dawley rats [12]; 0.1 mg/kg i.p., vs vehicle): enhanced overnight memory retention; platform crossings during first 30 seconds of probe trial (Sprague-Dawley rats [12]; 0.1 mg/kg i.p., vs vehicle): increased platform crossings; swim distance, day 4 (Sprague-Dawley rats [12]; 0.1 mg/kg i.p., vs vehicle): enhancement
